Laboratory results: ChEMBL document CHEMBL4190314, “Quinoline hybrids and their antiplasmodial and antimalarial activities” (Eur J Med Chem, 2017)
Values after ≈ are worked out from the molar mass of the structure shown. Values belong to the compound of their own block, whether it stands above or below them.

Experiments:
Plasmodium falciparum [1] = experiment: Antimalarial activity against synchronous culture of Plasmodium falciparum W2 ring stage infected in human erythrocytes after 48 hrs by flow cytometry; format: functional, organism-based; settings: W2, 48 h
Plasmodium falciparum [2] = experiment: Antimalarial activity against Plasmodium falciparum 3D7 infected in human erythrocytes after 72 hrs by SYBR Green-1 staining based fluorescence assay; format: functional, organism-based; settings: 3D7, 72 h
Plasmodium falciparum [3] = experiment: Antimalarial activity against chloroquine-sensitive Plasmodium falciparum 3D7 infected in human type A+ erythrocytes after 48 hrs by [3H]-hypoxanthine incorporation assay; format: functional, organism-based
Plasmodium falciparum [4] = experiment: Antimalarial activity against chloroquine-resistant Plasmodium falciparum K1 infected in human type A+ erythrocytes after 48 hrs by [3H]-hypoxanthine incorporation assay; format: functional, organism-based
Plasmodium falciparum [5] = experiment: Antimalarial activity against chloroquine-resistant Plasmodium falciparum W2 infected in human type A+ erythrocytes after 24 hrs by [3H]-hypoxanthine incorporation assay; format: functional, organism-based
Plasmodium falciparum [6] = experiment: Antimalarial activity against chloroquine-sensitive Plasmodium falciparum 3D7 infected in human type A+ erythrocytes after 24 hrs by [3H]-hypoxanthine incorporation assay; format: functional, organism-based
[7] = Elimination half life in FVB mouse plasma at 5 mg/kg, iv administered as single dose; format: ADME, organism-based; settings: read-out: beta t1/2 (converted)
Plasmodium falciparum [8] = experiment: microbe, parasite or virus in culture; settings: D10, 24 h
Description: Antimalarial activity against chloroquine-sensitive Plasmodium falciparum D10 after 24 hrs by [G-3H]-hypoxanthine incorporation assay

Plasmodium falciparum [9] = experiment: microbe, parasite or virus in culture; settings: K1, 24 h
Description: Antimalarial activity against chloroquine-resistant Plasmodium falciparum K1 after 24 hrs by [G-3H]-hypoxanthine incorporation assay

[10] = Drug uptake in FVB mouse brain at 5 mg/kg, iv administered as single dose by UPLC-MS/MS based equilibrium dialysis method; format: ADME, organism-based; settings: in vivo
Plasmodium falciparum [11] = experiment: Antimalarial activity against chloroquine-sensitive Plasmodium falciparum 3D7 infected in human erythrocytes after 72 hrs by SYBR Green-1 staining based fluorescence assay; format: functional, organism-based; settings: 3D7, 72 h
Plasmodium falciparum [12] = experiment: Antimalarial activity against chloroquine-sensitive Plasmodium falciparum D6 infected in human red blood cells assessed as reduction in parasitic LDH activity by Malstat reagent based spectrophotometric method; format: functional, organism-based
Plasmodium falciparum [13] = experiment: Antimalarial activity against chloroquine-resistant Plasmodium falciparum W2 infected in human red blood cells assessed as reduction in parasitic LDH activity by Malstat reagent based spectrophotometric method; format: functional, organism-based
Plasmodium falciparum [14] = experiment: Antimalarial activity against […] Plasmodium falciparum D6; format: functional
Plasmodium falciparum [15] = experiment: Antimalarial activity against multiple drug-resistant Plasmodium falciparum C235; format: functional
[16] = Permeability from apical to basolateral side in MDCK cells; format: ADME, cell-based, Canis lupus familiaris; settings: dog, read-out: permeability

SMILES: O=C(/C=C/c1ccc(Br)cc1)NCCCCNc1ccnc2cc(Cl)ccc12
- IC50 (Plasmodium falciparum [1]): 11 to 59 nM

SMILES: O=C1OC(CN2CCN(c3ccccc3F)CC2)CN1CCNc1ccnc2cc(Cl)ccc12 (stereo unspecified)
- IC50 (Plasmodium falciparum [3]): 62 to 430 nM
- IC50 (Plasmodium falciparum [4]): 62 to 430 nM

SMILES: O[C@@]12OOC3(C=C1C[C@@H]1CC[C@H]2C1)CCN(c1ccnc2cc(Cl)ccc12)CC3
- IC50 (Plasmodium falciparum [5]): 1400 to 2450 nM
- IC50 (Plasmodium falciparum [6]): 1400 to 2450 nM

SMILES: O[C@@H](c1cc(C(F)(F)F)nc2c(C(F)(F)F)cccc12)[C@H]1CCCCN1 [(S,R)-MEFLOQUINE]
- half-life [7]: 23 h
- IC50 (Plasmodium falciparum [8]): 90 nM
- IC50 (Plasmodium falciparum [9]): 300 nM
- Drug uptake [10]: 1600 ng/g

SMILES: CCN(CC)CCCC(C)Nc1cc(CCCCCCCCCCc2cc(NC(C)CCCN(CC)CC)c3ccccc3n2)nc2ccccc12 (stereo unspecified)
- IC50 (Plasmodium falciparum [8]): 43 nM

SMILES: COc1ccccc1N1CCN(CC2CN(CCNc3ccnc4cc(Cl)ccc34)C(=O)O2)CC1 (stereo unspecified)
- IC50 (Plasmodium falciparum [3]): 62 to 430 nM
- IC50 (Plasmodium falciparum [4]): 62 to 430 nM

SMILES: O=C1OC(CN2CCN(c3ccccc3)CC2)CN1CCNc1ccnc2cc(Cl)ccc12 (stereo unspecified)
- IC50 (Plasmodium falciparum [3]): 62 to 430 nM
- IC50 (Plasmodium falciparum [4]): 62 to 430 nM

SMILES: C[C@@H]1CC[C@H]2[C@@H](C)C(=O)O[C@@H]3O[C@@]4(C)CC[C@@H]1[C@]32OO4 [ARTEMISININ]
- IC50 (Plasmodium falciparum [5]): 19 nM

SMILES: C=C[C@H]1CN2CC[C@H]1C[C@H]2[C@H](O)c1ccnc2ccc(OC)cc12 [QUININE]
- IC50 (Plasmodium falciparum [2]): 18 nM

SMILES: O=C1OC(CN2CCN(c3ccccc3Cl)CC2)CN1CCNc1ccnc2cc(Cl)ccc12 (stereo unspecified)
- IC50 (Plasmodium falciparum [3]): 62 to 430 nM
- IC50 (Plasmodium falciparum [4]): 62 to 430 nM

SMILES: Cc1cccc(C)c1Nc1nc(OCc2cn(CCNc3ccnc4cc(Cl)ccc34)nn2)nc(N(C)C)n1
- IC50 (Plasmodium falciparum [12]): 580 nM
- IC50 (Plasmodium falciparum [13]): 730 nM

SMILES: COc1ccc(OCc2cn(CCNc3ccnc4cc(Cl)ccc34)nn2)cc1
- IC50 (Plasmodium falciparum [12]): 650 nM
- IC50 (Plasmodium falciparum [13]): 1120 nM

SMILES: CN(CCNCC(O)c1cc(C(F)(F)F)nc2c(C(F)(F)F)cccc12)CC(O)c1cc(C(F)(F)F)nc2c(C(F)(F)F)cccc12 (stereo unspecified)
- half-life [7]: 13 h
- IC90 (Plasmodium falciparum [14]): 0.022 to 0.08 µg/mL (≈ 0.032 to 0.116 µM)
- IC90 (Plasmodium falciparum [15]): 0.022 to 0.08 µg/mL (≈ 0.032 to 0.116 µM)
- Papp A→B [16]: 0.14 ×10⁻⁶ cm/s
- Drug uptake [10]: 97 ng/g

Results, then the compound that gave them:

- IC50 (Plasmodium falciparum [2]): < 100 nM
SMILES: C=C[C@H]1CN2CC[C@H]1C[C@H]2[C@H](OC(=O)[C@H](Cc1ccccc1)NC(=O)OC(C)(C)C)c1ccnc2ccc(OC)cc12

- IC50 (Plasmodium falciparum [1]): 11 to 59 nM
SMILES: CC(C)c1ccc(/C=C/C(=O)NCCCCNc2ccnc3cc(Cl)ccc23)cc1

- IC50 (Plasmodium falciparum [2]): < 100 nM
SMILES: C=C[C@H]1CN2CC[C@H]1C[C@H]2[C@H](OC(=O)[C@H](COCc1ccccc1)NC(=O)OC(C)(C)C)c1ccnc2ccc(OC)cc12

- IC50 (Plasmodium falciparum [1]): 11 to 59 nM
SMILES: O=C(/C=C/c1ccc(Cl)cc1)NCCCCNc1ccnc2cc(Cl)ccc12

- IC50 (Plasmodium falciparum [1]): 11 to 59 nM
SMILES: COc1ccc(/C=C/C(=O)NCCCCNc2ccnc3cc(Cl)ccc23)cc1

- IC50 (Plasmodium falciparum [2]): < 100 nM
SMILES: C=C[C@H]1CN2CC[C@H]1C[C@H]2[C@H](OC(=O)[C@H](Cc1cn(S(=O)(=O)c2ccc(C)cc2)cn1)NC(=O)OC(C)(C)C)c1ccnc2ccc(OC)cc12

- IC50 (Plasmodium falciparum [11]): 12 to 207 nM
SMILES: C=C[C@H]1CN2CC[C@H]1C[C@H]2[C@H](OC(=O)[C@H](C)NC(=O)c1cn(CC)c2nc(C)ccc2c1=O)c1ccnc2ccc(OC)cc12

- IC50 (Plasmodium falciparum [1]): 11 to 59 nM
SMILES: COc1ccc(/C=C/C(=O)NCCCCNc2ccnc3cc(Cl)ccc23)cc1OC

- IC50 (Plasmodium falciparum [2]): 17 nM
SMILES: C=C[C@H]1CN2CC[C@H]1C[C@H]2[C@H](OC(=O)[C@H](CC(=O)OCc1ccccc1)NC(=O)OCc1ccccc1)c1ccnc2ccc(OC)cc12

- IC50 (Plasmodium falciparum [1]): 11 to 59 nM
SMILES: O=C(/C=C/c1ccccc1)NCCCCNc1ccnc2cc(Cl)ccc12

- IC50 (Plasmodium falciparum [11]): 12 to 207 nM
SMILES: C=C[C@H]1CN2CC[C@H]1C[C@H]2[C@H](OC(=O)CNC(=O)c1cn(CC)c2nc(C)ccc2c1=O)c1ccnc2ccc(OC)cc12

- IC50 (Plasmodium falciparum [1]): 11 to 59 nM
SMILES: O=C(/C=C/c1ccc(F)cc1)NCCCCNc1ccnc2cc(Cl)ccc12

- IC50 (Plasmodium falciparum [2]): < 100 nM
SMILES: C=C[C@H]1CN2CC[C@H]1C[C@H]2[C@H](OC(=O)[C@H](CCCCNC(=O)OCc1ccccc1)NC(=O)OCc1ccccc1)c1ccnc2ccc(OC)cc12

- IC50 (Plasmodium falciparum [11]): 12 to 207 nM
SMILES: C=C[C@H]1CN2CC[C@H]1C[C@H]2[C@H](OC(=O)CNC(=O)c1cn2c3c(c(N4CCN(C)CC4)c(F)cc3c1=O)OC[C@@H]2C)c1ccnc2ccc(OC)cc12
